Assay results from US6133294A (priority 1999, dated 2000).

How the values were obtained:
Assay type in all cases: in vivo
Erysiphe graminis = test: Powdery Mildew of Wheat (Erysiphe graminis--ERYSGT); conditions: wheat (cultivar Monon), 100 ppm spray to run off, inoculated after 24 hours; for pest or weed control at 100 ppm: Blumeria graminis, 1DP, read-out: control of plant disease, ERYSGT 1DP
Procedure: (§1) Compound Formulation: Compound formulation was accomplished by dissolving technical materials in acetone, with serial dilutions then made in acetone to obtain desired rates. Final treatment volumes were obtained by adding nine volumes 0.05% aqueous Tween-20 or Triton X-100, depending upon the pathogen.
Powdery Mildew of Wheat (Erysiphe graminis--ERYSGT): Wheat (cultivar Monon) was grown in a soilless peat-based potting mixture (Metromix) until the seedlings were 1-2 leaf (BBCH 12). These plants were then sprayed to run off with the test compound at a rate of 100 ppm. After 24 hours the test plants were inoculated with Erysiphe graminis by dusting spores from stock plants onto the test plants. The plants were then transferred to the greenhouse until disease developed on the untreated control plants.
(§2) the following table presents the activity of typical compounds of the present invention when evaluated in these experiments. The effectiveness of the test compounds in controlling disease was rated using the following scale: […]

Phytophthora infestans = test: whole plant or invertebrate; conditions: for control of plant disease, PHYTIN 1DP: tomatoes (cultivar Rutgers), 100 ppm spray to run off, inoculated after 24 hours; for pest or weed control at 100 ppm: Phytophthora infestans, 24 h, read-out: control of plant disease, PHYTIN 1DP
Leptosphaeria nodorum = test: Glume blotch of wheat (Leptosphaeria nodorum--LEPTNO); conditions: wheat (cultivar Monon), 100 ppm spray to run off, inoculated after 24 hours; for pest or weed control at 100 ppm: Parastagonospora nodorum, 1DP, read-out: control of plant disease, LEPTNO 1DP
Procedure: as §1
(§3) Glume blotch of wheat (Leptosphaeria nodorum--LEPTNO): Wheat (cultivar Monon) was grown from seed in a soilless peat-based potting mixture (Metromix) until the seedlings were 1-2 leaf (BBCH 12). These plants were then sprayed to run off with the test compound at a rate of 100 ppm. After 24 hours the test plants were inoculated with an aqueous spore suspension of Leptosphaeria nodorum. The plants were then transferred to the greenhouse until disease developed on the untreated control plants.
as §2

Puccinia recondita = test: Brown rust (Puccinia recondita--PUCCRT); conditions: wheat (cultivar Monon), 100 ppm spray to run off, inoculated after 24 hours; for pest or weed control at 100 ppm: Puccinia recondita, 1DP, read-out: control of plant disease, PUCCRT 1DP
Procedure: as §1
as §3, with “Brown rust (Puccinia recondita--PUCCRT):” for “Glume blotch of wheat (Leptosphaeria nodorum--LEPTNO):”, “[…]).” for “1-2 leaf (BBCH 12).”, “Puccinia recondita.” for “Leptosphaeria nodorum.”
as §2

Structure (SMILES) | control of plant disease, ERYSGT 1DP (Erysiphe graminis) | control of plant disease, PHYTIN 1DP (Phytophthora infestans) | control of plant disease, LEPTNO 1DP (Leptosphaeria nodorum) | control of plant disease, PUCCRT 1DP (Puccinia recondita) | pest or weed control at 100 ppm (Erysiphe graminis) [%] | pest or weed control at 100 ppm (Phytophthora infestans) [%] | pest or weed control at 100 ppm (Leptosphaeria nodorum) [%] | pest or weed control at 100 ppm (Puccinia recondita) [%]
CNC(=O)C(=NOC)c1cccc(Cl)c1COc1ncc(-c2noc(C(F)(F)F)n2)cc1Cl [Example 34] | ++ (75-100% control of plant disease) | - (0-24% control of plant disease) | ++ (75-100% control of plant disease) | ++ (75-100% control of plant disease) | – | – | – | –
CNC(=O)C(=NOC)c1ccccc1COc1ncc(-c2noc(CC(C)(C)C)n2)cc1Cl [Example 17] | – | – | – | – | 75 to 100 | 0 to 24 | 75 to 100 | 75 to 100
CNC(=O)C(=NOC)c1ccccc1COc1ncc(-c2noc(C(F)(F)F)n2)cc1Cl [Example 11] | – | – | – | – | 75 to 100 | 0 to 24 | 75 to 100 | 75 to 100
CNC(=O)C(=NOC)c1ccccc1COc1ncc(-c2nc(-c3ccccc3)no2)cc1Cl [Example 48] | – | – | – | – | 75 to 100 | 75 to 100 | 25 to 74 | 75 to 100
CON=C(C(=O)OC)c1ccccc1COc1ncc(-c2noc(C(C)(C)C)n2)cc1Cl [Example 97] | – | – | – | – | 75 to 100 | 75 to 100 | 75 to 100 | 75 to 100
CCc1noc(-c2cnc(OCc3ccccc3C(=NOC)C(=O)NC)c(Cl)c2)n1 [Example 54] | – | – | – | – | 75 to 100 | 75 to 100 | 75 to 100 | 75 to 100
CNC(=O)C(=NOC)c1ccccc1COc1ncc(-c2nc(C3CCCCC3)no2)cc1Cl [Example 72] | – | – | – | – | 0 to 24 | 0 to 24 | 0 to 24 | 75 to 100
CNC(=O)C(=NOC)c1ccccc1COc1ncc(-c2noc(C3CCCC3)n2)cc1Cl [Example 13] | – | – | – | – | 75 to 100 | 0 to 24 | 75 to 100 | 75 to 100
CNC(=O)C(=NOC)c1ccccc1COc1cccc(-c2nc(C(F)(F)F)no2)n1 [Example 89] | – | – | – | – | 0 to 24 | 75 to 100 | 0 to 24 | 75 to 100
CNC(=O)C(=NOC)c1ccccc1COc1ncc(-c2noc(CSc3ccccc3)n2)cc1Cl [Example 24] | – | – | – | – | 0 to 24 | 75 to 100 | 75 to 100 | 75 to 100
COC=C(C(=O)OC)c1ccccc1COc1ncc(-c2noc(C(C)(C)C)n2)cc1Cl [Example 98] | – | – | – | – | 75 to 100 | 0 to 24 | 75 to 100 | 75 to 100
CNC(=O)C(=NOC)c1ccccc1COc1ncc(-c2noc(C)n2)cc1Cl [Example 8] | – | – | – | – | 75 to 100 | 0 to 24 | 75 to 100 | 75 to 100
CNC(=O)C(=NOC)c1ccccc1COc1ccc(-c2noc(C)n2)cn1 [Example 10] | – | – | – | – | 75 to 100 | 0 to 24 | 75 to 100 | 75 to 100
CNC(=O)C(=NOC)c1ccccc1COc1ncc(-c2noc(-c3ccco3)n2)cc1Cl [Example 18] | – | – | – | – | 25 to 74 | 75 to 100 | 75 to 100 | 75 to 100
CCC=Cc1nc(-c2cnc(OCc3ccccc3C(=NOC)C(=O)NC)c(Cl)c2)no1 [Example 22] | – | – | – | – | 75 to 100 | 0 to 24 | 75 to 100 | 75 to 100
CCOC(=O)c1nc(-c2cnc(OCc3ccccc3C(=NOC)C(=O)NC)c(C)c2)oc1C [Example 52, Benzeneacetamide, 2-[[[3-methyl-5-(4-ethoxycarbonyl-5-methyl-oxazol-2-yl)-2-pyridinyl]oxy]methyl]-α-(methoxyimino)-N-methyl-] | – | – | – | – | 25 to 74 | 75 to 100 | 25 to 74 | 75 to 100
CNC(=O)C(=NOC)c1cccc(F)c1COc1cccc(-c2nc(C(C)(C)C)no2)n1 [Example 88] | ++ (75-100% control of plant disease) | ++ (75-100% control of plant disease) | ++ (75-100% control of plant disease) | ++ (75-100% control of plant disease) | – | – | – | –
CNC(=O)C(=NOC)c1ccccc1COc1ncc(-c2noc(C(C)C)n2)cc1Cl [Example 37] | – | – | – | – | 75 to 100 | 0 to 24 | 75 to 100 | 75 to 100
